Reference: the NIST ThermoML archive (doi:10.1021/je050050p)

Test: xn = mol fraction of the nth substance listed
Conditions: Liquid, Vibrating tube method

CN(C)C=O [dimethylformamide] + O=C=O
Conditions | mass density [kg/m3]
332.98 K, 14003 kPa, x2 = 0.4268 | 937.07
332.98 K, 14011 kPa, x2 = 0.9311 | 761.83
332.98 K, 15006 kPa, x2 = 0.4268 | 938.28
332.98 K, 15009 kPa, x2 = 0.9311 | 776.41
332.98 K, 16024 kPa, x2 = 0.4268 | 939.46
332.98 K, 16030 kPa, x2 = 0.9311 | 789.22
332.98 K, 17017 kPa, x2 = 0.9311 | 800.11
332.98 K, 17036 kPa, x2 = 0.4268 | 940.67
332.98 K, 18002 kPa, x2 = 0.9311 | 809.93
332.98 K, 18017 kPa, x2 = 0.4268 | 941.85
332.98 K, 19025 kPa, x2 = 0.4268 | 943
332.98 K, 19031 kPa, x2 = 0.9311 | 819.29
332.98 K, 20004 kPa, x2 = 0.4268 | 944.1
332.98 K, 20025 kPa, x2 = 0.9311 | 827.57
332.98 K, 21001 kPa, x2 = 0.4268 | 945.19
332.98 K, 21030 kPa, x2 = 0.9311 | 835.37
332.98 K, 21993 kPa, x2 = 0.4268 | 946.33
332.98 K, 21994 kPa, x2 = 0.9311 | 842.35
332.98 K, 22998 kPa, x2 = 0.9311 | 849.15
332.98 K, 23015 kPa, x2 = 0.4268 | 947.45
332.98 K, 24024 kPa, x2 = 0.9311 | 855.75
332.98 K, 24114 kPa, x2 = 0.4268 | 948.62
332.98 K, 25011 kPa, x2 = 0.9311 | 861.78
332.98 K, 25061 kPa, x2 = 0.4268 | 949.68
332.99 K, 6007 kPa, x2 = 0.2876 | 926.13
332.99 K, 6998 kPa, x2 = 0.2876 | 927.15
332.99 K, 7991 kPa, x2 = 0.2876 | 928.18
332.99 K, 9011 kPa, x2 = 0.4461 | 930.78
332.99 K, 9021 kPa, x2 = 0.2876 | 929.22
332.99 K, 9993 kPa, x2 = 0.4461 | 931.95
332.99 K, 10024 kPa, x2 = 0.2876 | 930.23
332.99 K, 11006 kPa, x2 = 0.2876 | 931.19
332.99 K, 11013 kPa, x2 = 0.4461 | 933.65
332.99 K, 12003 kPa, x2 = 0.4461 | 934.9
332.99 K, 12020 kPa, x2 = 0.2876 | 932.19
332.99 K, 13012 kPa, x2 = 0.4461 | 936.18
332.99 K, 13024 kPa, x2 = 0.2876 | 933.16
332.99 K, 13991 kPa, x2 = 0.4461 | 937.43
332.99 K, 14028 kPa, x2 = 0.2876 | 934.12
332.99 K, 15009 kPa, x2 = 0.4461 | 938.71
332.99 K, 15010 kPa, x2 = 0.2876 | 935.07
332.99 K, 16010 kPa, x2 = 0.2876 | 936.01
332.99 K, 16010 kPa, x2 = 0.4461 | 939.93
332.99 K, 17001 kPa, x2 = 0.4461 | 941.16
332.99 K, 17003 kPa, x2 = 0.2876 | 936.96
332.99 K, 17994 kPa, x2 = 0.4461 | 942.35
332.99 K, 18005 kPa, x2 = 0.2876 | 937.87
332.99 K, 18988 kPa, x2 = 0.4461 | 943.52
332.99 K, 19008 kPa, x2 = 0.2876 | 938.78
332.99 K, 20001 kPa, x2 = 0.4461 | 944.69
332.99 K, 20007 kPa, x2 = 0.2876 | 939.69
332.99 K, 20995 kPa, x2 = 0.4461 | 945.88
332.99 K, 21004 kPa, x2 = 0.2876 | 940.6
332.99 K, 21990 kPa, x2 = 0.2876 | 941.48
332.99 K, 21998 kPa, x2 = 0.4461 | 947.03
332.99 K, 23023 kPa, x2 = 0.4461 | 948.19
332.99 K, 23037 kPa, x2 = 0.2876 | 942.42
332.99 K, 23982 kPa, x2 = 0.4461 | 949.27
332.99 K, 24000 kPa, x2 = 0.2876 | 943.28
332.99 K, 24996 kPa, x2 = 0.2876 | 944.13
332.99 K, 25021 kPa, x2 = 0.4461 | 950.44
333 K, 7019 kPa, x2 = 0.4502 | 928.11
333 K, 8001 kPa, x2 = 0.4502 | 929.45
333 K, 8029 kPa, x2 = 0.4068 | 930.01
333 K, 9015 kPa, x2 = 0.4502 | 930.81
333 K, 9016 kPa, x2 = 0.4068 | 931.23
333 K, 10008 kPa, x2 = 0.4068 | 932.42
333 K, 10013 kPa, x2 = 0.4502 | 932.14
333 K, 11006 kPa, x2 = 0.4502 | 933.42
333 K, 11025 kPa, x2 = 0.4068 | 933.65
333 K, 12004 kPa, x2 = 0.4502 | 934.74
333 K, 12006 kPa, x2 = 0.4068 | 934.81
333 K, 13019 kPa, x2 = 0.4068 | 936.04
333 K, 13021 kPa, x2 = 0.4502 | 936.04
333 K, 14010 kPa, x2 = 0.4068 | 937.15
333 K, 14019 kPa, x2 = 0.4502 | 937.31
333 K, 15001 kPa, x2 = 0.4502 | 938.54
333 K, 15002 kPa, x2 = 0.4068 | 938.28
333 K, 16010 kPa, x2 = 0.4068 | 939.41
333 K, 16014 kPa, x2 = 0.4502 | 939.78
333 K, 16998 kPa, x2 = 0.4068 | 940.54
333 K, 17013 kPa, x2 = 0.4502 | 941.01
333 K, 18013 kPa, x2 = 0.4068 | 941.67
333 K, 18021 kPa, x2 = 0.4502 | 942.21
333 K, 19006 kPa, x2 = 0.4502 | 943.4
333 K, 19008 kPa, x2 = 0.4068 | 942.75
333 K, 20008 kPa, x2 = 0.4068 | 943.81
333 K, 20021 kPa, x2 = 0.4502 | 944.58
333 K, 20981 kPa, x2 = 0.4068 | 944.88
333 K, 21001 kPa, x2 = 0.4502 | 945.74
333 K, 22001 kPa, x2 = 0.4068 | 945.96
333 K, 22027 kPa, x2 = 0.4502 | 946.9
333 K, 22996 kPa, x2 = 0.4068 | 947.02
333 K, 23019 kPa, x2 = 0.4502 | 948.04
333 K, 24013 kPa, x2 = 0.4068 | 948.07
333 K, 24013 kPa, x2 = 0.4502 | 949.18
333 K, 25001 kPa, x2 = 0.4068 | 949.09
333 K, 25015 kPa, x2 = 0.4502 | 950.28
342.89 K, 10992 kPa, x2 = 0.6235 | 886.15
342.89 K, 12012 kPa, x2 = 0.6235 | 889.74
342.89 K, 13020 kPa, x2 = 0.6235 | 893.05
342.89 K, 14010 kPa, x2 = 0.6235 | 896.16
342.89 K, 15018 kPa, x2 = 0.6235 | 899.25
342.89 K, 16005 kPa, x2 = 0.6235 | 902.14
342.89 K, 17023 kPa, x2 = 0.6235 | 905.02
342.89 K, 18015 kPa, x2 = 0.6235 | 907.74
342.89 K, 19032 kPa, x2 = 0.6235 | 910.42
342.89 K, 20044 kPa, x2 = 0.6235 | 913.05
342.89 K, 21008 kPa, x2 = 0.6235 | 915.46
342.89 K, 21997 kPa, x2 = 0.6235 | 917.87
342.89 K, 23022 kPa, x2 = 0.6235 | 920.31
342.89 K, 24005 kPa, x2 = 0.6235 | 922.57
342.89 K, 25050 kPa, x2 = 0.6235 | 924.92
342.92 K, 9047 kPa, x2 = 0.4268 | 916.56
342.92 K, 10045 kPa, x2 = 0.4268 | 917.97
342.92 K, 11042 kPa, x2 = 0.4268 | 919.28
342.92 K, 12037 kPa, x2 = 0.4268 | 920.66
342.92 K, 13020 kPa, x2 = 0.4268 | 921.93
342.92 K, 13997 kPa, x2 = 0.4268 | 923.27
342.92 K, 14981 kPa, x2 = 0.4268 | 924.53
342.92 K, 15034 kPa, x2 = 0.9311 | 711.76
342.92 K, 15061 kPa, x2 = 0.8091 | 832.64
342.92 K, 15988 kPa, x2 = 0.8091 | 839.54
342.92 K, 15991 kPa, x2 = 0.4268 | 925.79
342.92 K, 16002 kPa, x2 = 0.9311 | 729.81
342.92 K, 17002 kPa, x2 = 0.4268 | 927.11
342.92 K, 17015 kPa, x2 = 0.9311 | 745.62
342.92 K, 17027 kPa, x2 = 0.8091 | 845.55
342.92 K, 18016 kPa, x2 = 0.8091 | 851.1
342.92 K, 18024 kPa, x2 = 0.9311 | 759.3
342.92 K, 18025 kPa, x2 = 0.4268 | 928.36
342.92 K, 19002 kPa, x2 = 0.9311 | 770.95
342.92 K, 19028 kPa, x2 = 0.8091 | 856.53
342.92 K, 19044 kPa, x2 = 0.4268 | 929.6
342.92 K, 19999 kPa, x2 = 0.4268 | 930.83
342.92 K, 20000 kPa, x2 = 0.9311 | 781.74
342.92 K, 20057 kPa, x2 = 0.8091 | 861.77
342.92 K, 20984 kPa, x2 = 0.4268 | 931.96
342.92 K, 21012 kPa, x2 = 0.8091 | 866.52
342.92 K, 21034 kPa, x2 = 0.9311 | 791.87
342.92 K, 21992 kPa, x2 = 0.8091 | 871.08
342.92 K, 22002 kPa, x2 = 0.4268 | 933.2
342.92 K, 22002 kPa, x2 = 0.9311 | 800.53
342.92 K, 22999 kPa, x2 = 0.8091 | 875.54
342.92 K, 23014 kPa, x2 = 0.9311 | 809.02
342.92 K, 23042 kPa, x2 = 0.4268 | 934.44
342.92 K, 23981 kPa, x2 = 0.4268 | 935.53
342.92 K, 24017 kPa, x2 = 0.9311 | 816.82
342.92 K, 24029 kPa, x2 = 0.8091 | 879.9
342.92 K, 25008 kPa, x2 = 0.9311 | 824.06
342.92 K, 25020 kPa, x2 = 0.8091 | 883.99
342.92 K, 25047 kPa, x2 = 0.4268 | 936.75
342.93 K, 7012 kPa, x2 = 0.2876 | 914.85
342.93 K, 7999 kPa, x2 = 0.2876 | 915.95
342.93 K, 9007 kPa, x2 = 0.2876 | 917.04
342.93 K, 10005 kPa, x2 = 0.2876 | 918.13
342.93 K, 11003 kPa, x2 = 0.2876 | 919.16
342.93 K, 12011 kPa, x2 = 0.2876 | 920.23
342.93 K, 13016 kPa, x2 = 0.2876 | 921.27
342.93 K, 14012 kPa, x2 = 0.2876 | 922.31
342.93 K, 15013 kPa, x2 = 0.2876 | 923.35
342.93 K, 16000 kPa, x2 = 0.2876 | 924.33
342.93 K, 17024 kPa, x2 = 0.2876 | 925.34
342.93 K, 18001 kPa, x2 = 0.2876 | 926.31
342.93 K, 19036 kPa, x2 = 0.2876 | 927.32
342.93 K, 20015 kPa, x2 = 0.2876 | 928.27
342.93 K, 21009 kPa, x2 = 0.2876 | 929.23
